Source: the supplement of paper PMC10331698
± gives the standard deviation of the averaged measurements.

What was measured:
Assay in all cases: level (log10 ratio to DMSO vehicle control); higher = higher biomarker level / cell amount than vehicle control
Details in all cases: in DMSO
[1] = compound: O=C(O)C(F)(F)C(F)(F)C(F)(F)C(F)(F)C(F)(F)C(F)(F)C(F)(F)C(F)F [9-H-Perfluorononanoic acid]
Method: (§1)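 BioMAP Diversity Plus panel of 12 human primary cell co-culture systems (3C, 4H, LPS, SAg, BT, BF4T, BE3C, CASM3C, HDF3CGF, KF3CT, MyoF, Mphg). Compounds were added 1 h before stimulation and left for 24 h (MyoF 48 h; BT 72 h for soluble read-outs or 6 d for IgG). Biomarkers were read by ELISA, cytotoxicity by SRB, PBMC viability and proliferation by Alamar Blue. Each well value was divided by the mean of 8 DMSO control wells on the same plate and log10 transformed; duplicate blinded samples were tested at 4 concentrations.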

[2] = compound: C=CC(=O)OCC(F)(F)C(F)(F)C(F)(F)C(F)(F)C(F)(F)C(F)(F)C(F)(F)F [1H,1H-Perfluorooctyl acrylate]
Method: as §1

[3] = compound: CCN(CCO)S(=O)(=O)C(F)(F)C(F)(F)C(F)(F)C(F)(F)C(F)(F)C(F)(F)C(F)(F)C(F)(F)F [N-Ethyl-N-(2-hydroxyethyl)perfluorooctanesulfonamide]
Method: as §1

[4] = compound: FC(F)(F)C(F)(F)C(F)(F)C(F)(F)C(F)(F)C(F)(F)C(F)(F)C(F)(F)CCS [2-(Perfluorooctyl)ethanthiol]
Method: as §1

[5] = compound: O=C(O)C(F)(F)OC(F)(F)C(F)(F)OC(F)(F)C(=O)O [Perfluoro-3,6-dioxaoctane-1,8-dioic acid]
Method: as §1

[6] = compound: FC(F)(F)C(F)(C(F)(F)F)C(F)(F)C(F)(F)CC1CO1 [3-(Perfluoro-3-methylbutyl)-1,2-propenoxide]
Method: as §1

[7] = compound: O=C(O)C(F)(F)C(F)(F)C(F)F [4H-Perfluorobutanoic acid]
Method: as §1

[8] = compound: C=C(C)C(=O)OCCC(F)(F)C(F)(F)C(F)(F)C(F)(F)C(F)(C(F)(F)F)C(F)(F)F [(Perfluoro-5-methylhexyl)ethyl 2-methylprop-2-enoate]
Method: as §1

Row | Test System | level (log10) ([1]; 6700 nM) | level (log10) ([1]; 20000 nM) | level (log10) ([1]; 60000 nM) | level (log10) ([2]; 6700 nM) | level (log10) ([2]; 20000 nM) | level (log10) ([2]; 60000 nM) | level (log10) ([3]; 6700 nM) | level (log10) ([3]; 20000 nM) | level (log10) ([4]; 6700 nM) | level (log10) ([4]; 20000 nM) | level (log10) ([5]; 6700 nM) | level (log10) ([5]; 20000 nM) | level (log10) ([5]; 60000 nM) | level (log10) ([6]; 6700 nM) | level (log10) ([6]; 20000 nM) | level (log10) ([7]; 6700 nM) | level (log10) ([7]; 20000 nM) | level (log10) ([7]; 60000 nM) | level (log10) ([8]; 6700 nM) | level (log10) ([8]; 20000 nM)
1 | 3C:CD87/uPAR | -0.013 ± 0.0042 | -0.0105 ± 0.023 | -0.029 ± 0.034 | -0.0055 ± 0.012 | -0.0075 ± 0.0064 | 0.004 | -0.047 ± 0.027 | -0.124 ± 0.046 | -0.0175 ± 0.0021 | -0.0215 ± 0.0035 | 0.016 ± 0.044 | -0.013 ± 0.013 | 0.0195 ± 0.011 | -0.0085 ± 0.00071 | -0.003 ± 0.0028 | -0.0265 ± 0.0092 | -0.0065 ± 0.0092 | 0.0095 ± 0.0064 | -0.007 ± 0.0028 | -0.019 ± 0.028
2 | 3C:CXCL8/IL-8 | -0.0115 ± 0.011 | 0.015 ± 0.0057 | 0.0765 ± 0.005 | 0.0075 ± 0.013 | -0.008 ± 0.0042 | 0.016 ± 0.03 | 0.02 ± 0.044 | -0.0985 ± 0.1 | 0.002 ± 0.018 | 0.044 ± 0.028 | -0.015 ± 0.051 | -0.013 ± 0.034 | -0.007 ± 0.059 | -0.0065 ± 0.018 | 0.008 ± 0.014 | -0.0015 ± 0.054 | 0.009 ± 0.0071 | 0.0395 ± 0.042 | 0.0105 ± 0.03 | 0.054 ± 0.086
3 | 3C:CXCL9/MIG | -0.013 ± 0.0071 | 0.0095 ± 0.00071 | 0.0045 ± 0.0021 | 0.0015 ± 0.0035 | -0.002 ± 0.014 | 0.0115 ± 0.005 | -0.013 ± 0.0085 | -0.006 ± 0.0085 | 0.002 | 0.0115 ± 0.005 | 0.003 ± 0.0057 | -0.009 ± 0.0028 | 0.0095 ± 0.005 | -0.011 ± 0.0042 | -0.0025 ± 0.005 | 0.005 ± 0.0042 | 0.0035 ± 0.013 | 0.012 ± 0.0014 | -0.001 ± 0.011 | 0.0045 ± 0.0035
4 | 3C:HLA-DR | -0.005 ± 0.0028 | 0.0005 ± 0.0021 | 0.028 ± 0.02 | 0.0085 ± 0.0092 | 0.0155 ± 0.0035 | 0.0205 ± 0.019 | 0.013 ± 0.025 | -0.0625 ± 0.016 | -0.015 ± 0.018 | -0.0235 ± 0.0078 | 0.008 ± 0.018 | -0.037 ± 0.013 | -0.0065 ± 0.012 | 0.0085 ± 0.00071 | 0.018 ± 0.018 | -0.003 ± 0.0057 | -0.013 ± 0.011 | 0.011 ± 0.014 | -0.004 ± 0.016 | -0.023 ± 0.02
5 | 3C:Proliferation | -0.013 ± 0.017 | 0.004 ± 0.037 | -0.023 ± 0.031 | -0.015 ± 0.017 | -0.0805 ± 0.032 | -0.214 ± 0.033 | -0.267 ± 0.087 | -0.947 ± 0.17 | 0.0355 ± 0.029 | -0.016 ± 0.013 | 0.002 ± 0.0028 | -0.038 ± 0.044 | -0.033 ± 0.014 | -0.014 ± 0.016 | -0.002 ± 0.042 | -0.023 ± 0.02 | -0.03 ± 0.041 | 0.013 ± 0.065 | 0.004 ± 0.052 | -0.0305 ± 0.0021
6 | 3C:SRB | -0.005 ± 0.028 | -0.0115 ± 0.016 | -0.052 ± 0.025 | -0.002 ± 0.0099 | 0.0145 ± 0.011 | 0.015 | -0.0815 ± 0.021 | -0.217 ± 0.011 | 0.005 ± 0.0071 | -0.013 ± 0.016 | 0.0055 ± 0.0064 | -0.0055 ± 0.016 | -0.004 ± 0.0014 | 0.0045 ± 0.0064 | -0.01 ± 0.0057 | 0.0015 ± 0.0064 | -0.007 ± 0.016 | -0.0075 ± 0.013 | -0.008 ± 0.0042 | -0.0175 ± 0.0078
7 | 4H:CCL2/MCP-1 | -0.028 ± 0.013 | -0.059 ± 0.017 | -0.0405 ± 0.081 | -0.0145 ± 0.00071 | -0.015 ± 0.0028 | 0.0165 ± 0.026 | -0.007 ± 0.0099 | -0.159 ± 0.044 | -0.02 ± 0.017 | 0.0395 ± 0.035 | 0.003 ± 0.041 | -0.032 ± 0.018 | 0.0205 ± 0.0035 | -0.038 ± 0.013 | 0.001 ± 0.042 | -0.066 ± 0.047 | -0.0555 ± 0.029 | -0.0005 ± 0.028 | -0.0135 ± 0.011 | 0.002 ± 0.0042
8 | 4H:CCL26/Eotaxin-3 | -0.002 ± 0.0085 | -0.0035 ± 0.013 | -0.0155 ± 0.0064 | 0.002 ± 0.023 | -0.002 ± 0.0057 | -0.0005 ± 0.0021 | 0.077 ± 0.031 | -0.143 ± 0.14 | 0.008 ± 0.017 | -0.0145 ± 0.0064 | 0.0045 ± 0.022 | 0.017 ± 0.021 | 0.0085 ± 0.0092 | -0.002 ± 0.018 | 0.013 ± 0.013 | -0.0165 ± 0.012 | -0.008 ± 0.011 | 0.008 ± 0.0085 | 0.042 ± 0.058 | 0.039 ± 0.02
9 | 4H:CD62P/P-selectin | 0.033 ± 0.078 | 0.0825 ± 0.0035 | 0.149 ± 0.014 | 0.038 ± 0.05 | -0.0155 ± 0.018 | -0.047 ± 0.023 | -0.079 ± 0.0014 | -0.142 ± 0.044 | 0.019 ± 0.0071 | -0.017 | -0.004 | 0.014 ± 0.0014 | 0.0275 ± 0.013 | -0.0085 ± 0.0064 | 0.0305 ± 0.012 | -0.0185 ± 0.042 | 0.0005 ± 0.057 | -0.011 ± 0.04 | -0.017 ± 0.03 | -0.02 ± 0.028
10 | 4H:CD87/uPAR | 0.002 ± 0.037 | 0.027 ± 0.017 | 0.019 ± 0.013 | -0.009 ± 0.062 | 0.0005 ± 0.037 | -0.003 ± 0.018 | -0.037 ± 0.037 | -0.088 ± 0.024 | -0.0055 ± 0.0021 | -0.0165 ± 0.0021 | -0.0095 ± 0.032 | -0.009 ± 0.037 | 0.001 ± 0.011 | -0.005 ± 0.027 | 0.0075 ± 0.04 | -0.0265 ± 0.025 | -0.0065 ± 0.0035 | -0.004 ± 0.044 | 0.0115 ± 0.037 | 0 ± 0.0071
11 | 4H:CD106/VCAM-1 | 0.005 ± 0.054 | 0.0095 ± 0.016 | -0.001 ± 0.016 | 0.0165 ± 0.036 | 0.032 ± 0.023 | 0.0225 ± 0.059 | 0.116 ± 0.021 | 0.0765 ± 0.0021 | -0.0055 ± 0.005 | -0.0025 ± 0.012 | 0.01 ± 0.023 | -0.0125 ± 0.0078 | -0.001 ± 0.0042 | 0.0245 ± 0.043 | 0.0215 ± 0.042 | -0.003 ± 0.014 | -0.0165 ± 0.011 | 0.0065 ± 0.011 | -0.012 ± 0.016 | -0.0005 ± 0.005
12 | 4H:SRB | 0.008 ± 0.033 | -0.0115 ± 0.025 | -0.039 ± 0.0099 | 0.003 ± 0.016 | 0.0015 ± 0.013 | 0.0045 ± 0.0064 | -0.016 ± 0.0057 | -0.0605 ± 0.029 | 0.0085 ± 0.011 | -0.003 ± 0.0057 | -0.0115 ± 0.0078 | -0.0115 ± 0.022 | -0.003 ± 0.027 | 0 ± 0.025 | -0.019 ± 0.0071 | -0.0085 ± 0.0092 | -0.003 ± 0.0071 | 0.0055 ± 0.0035 | 0.002 ± 0.013 | -0.0025 ± 0.019
13 | 4H:VEGFR2 | 0.0105 ± 0.037 | 0.001 ± 0.027 | 0.051 ± 0.0099 | -0.0075 ± 0.0035 | 0.0045 ± 0.0064 | 0.0235 ± 0.019 | 0.0365 ± 0.0092 | 0.002 ± 0.0042 | -0.0145 ± 0.026 | 0.0405 ± 0.074 | -0.045 ± 0.016 | -0.06 ± 0.011 | -0.016 ± 0.047 | -0.001 ± 0.014 | 0.0245 ± 0.026 | -0.0255 ± 0.015 | -0.005 ± 0.042 | 0.012 ± 0.05 | -0.0185 ± 0.037 | -0.0115 ± 0.033
14 | BE3C:CD54/ICAM-1 | -0.0435 ± 0.012 | -0.043 ± 0.0042 | -0.071 ± 0.0057 | 0.0055 ± 0.042 | -0.011 ± 0.014 | 0.003 ± 0.014 | 0.0705 ± 0.033 | 0.0555 ± 0.013 | -0.0055 ± 0.028 | -0.0055 ± 0.015 | -0.003 ± 0.021 | -0.0035 ± 0.0092 | 0.002 ± 0.038 | -0.0095 ± 0.019 | -0.0065 ± 0.0092 | -0.0085 ± 0.0021 | -0.0245 ± 0.00071 | 0.0125 ± 0.033 | -0.0075 ± 0.0021 | 0.005 ± 0.0042
